Measurements: PMC1448180, “Small-molecule and mutational analysis of allosteric Eg5 inhibition by monastrol” (BMC Chemical Biology, 2006)
Substitutions are numbered along the chain they refer to. Read-outs that look alike come from different tables or passages of the source.

Experiments:
hEg5-367H = molecular target: T1, hEg5-367H (Homo sapiens, UniProt P52732); experiment: ATP hydrolysis by recombinant human Eg5 motor domain (NADH-enzyme coupled assay); assay type: biochemical; conditions: for Activity as Eg5 inhibitor, in words: authors' assays
T1 construct: motor domain (amino acid residues 1–367) of human Eg5; His6 (C); made in house
T1 sequence (P52732 1-367): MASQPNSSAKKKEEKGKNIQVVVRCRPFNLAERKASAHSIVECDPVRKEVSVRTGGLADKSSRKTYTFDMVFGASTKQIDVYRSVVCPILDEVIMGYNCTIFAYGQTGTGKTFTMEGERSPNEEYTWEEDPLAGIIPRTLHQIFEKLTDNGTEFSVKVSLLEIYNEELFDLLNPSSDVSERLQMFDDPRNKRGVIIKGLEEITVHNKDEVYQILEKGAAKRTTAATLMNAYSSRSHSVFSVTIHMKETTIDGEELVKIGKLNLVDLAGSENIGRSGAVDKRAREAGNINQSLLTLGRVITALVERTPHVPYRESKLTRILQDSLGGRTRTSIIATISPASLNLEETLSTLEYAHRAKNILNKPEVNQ
Description: (§1) Figure 2 Structure-activity relationship of monastrol derivatives. (A) Scheme depicting the Biginelli condensation, a one-pot reaction for preparing monastrol derivatives. […] Each data point is the average of three independent experiments. […] Each cell-based assay was performed in duplicate.
We used a modified PCR mutagenesis protocol to introduce mutations into hEg5-367H, a plasmid encoding the C-terminally His6-tagged motor domain (amino acid residues 1–367) of human Eg5. The wild-type and mutant proteins were expressed and purified using Ni-NTA affinity chromatography and concentrated to between 3 and 10 mg/ml protein as described.
(§2) ATP hydrolysis by recombinantly expressed kinesin motor domains was measured using an NADH-enzyme coupled assay. ATP hydrolysis was measured in KC25 buffer supplemented with 5 μM taxol, 1 mM ATP-KOH (pH 7.0), the appropriate concentration of motor domain, and the appropriate concentrations of taxol-polymerized microtubules.

BS-C-1 cells = experiment: Monoaster formation in tissue culture cells (manual count of mitotic cells); assay type: cell-based, green monkey; conditions: Chlorocebus sabaeus, read-out: Cells: monoaster formation score (drug concentration with roughly equal monastral and bipolar spindles)
Description: as §1
Conditions for growing the following cell lines are as described: D. rerio AB9 (37), D. melanogaster KC167 [38], and BS-C-1 green monkey kidney cells. For immunofluorescence microscopy, cells were grown on 12 mm circular coverslips to 30 % confluence, treated medium supplemented with drug and 0.2% DMSO, or a DMSO alone, for 6 hours, fixed with formaldehyde, and stained for DNA and microtubules, as described. D. melanogaster KC167 cells were cultured in Schneider's Drosophila Medium (GIBCO) whereas D. rerio AB9 cells and BS-C-1 green monkey kidney cells were cultured at 37°C in Dulbecco's Minimal medium in the presence of 10 % heat inactivated fetal calf serum.

Klp61F-364H = molecular target: T2, Klp61F-364H (Drosophila melanogaster, UniProt P46863); experiment: ATP hydrolysis by Klp-61F motor domain (NADH-enzyme coupled assay); assay type: biochemical, D. melanogaster
T2 construct: His6 (C); made in house; host or cells: vector pRSETa
T2 sequence (P46863 1-364): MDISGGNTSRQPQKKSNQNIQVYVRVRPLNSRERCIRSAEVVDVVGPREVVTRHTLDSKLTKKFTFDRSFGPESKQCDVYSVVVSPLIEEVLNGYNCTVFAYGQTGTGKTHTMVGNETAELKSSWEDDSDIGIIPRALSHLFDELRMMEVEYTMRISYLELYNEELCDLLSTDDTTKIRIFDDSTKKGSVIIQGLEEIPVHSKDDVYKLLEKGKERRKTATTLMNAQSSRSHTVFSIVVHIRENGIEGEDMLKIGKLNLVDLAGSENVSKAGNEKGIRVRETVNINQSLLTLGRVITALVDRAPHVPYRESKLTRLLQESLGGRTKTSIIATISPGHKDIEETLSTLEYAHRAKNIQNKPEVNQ
Description: Each data point is the average of three independent experiments.
as §2

hEg5-367H (L214T) = molecular target: T3, hEg5-367H (L214T) (Homo sapiens, UniProt P52732, L214T); experiment: ATP hydrolysis by Eg5 motor domain mutant L214T; assay type: biochemical; conditions: data not shown
T3 construct: motor domain (amino acid residues 1–367) of human Eg5; His6 (C); made in house
T3 sequence (P52732 1-367 L214T): T1 sequence (P52732 1-367) with L214T
From the text: Figure 4 Mutagenesis of the monastrol binding site in human Eg5. (A) Design of mutations in the human Eg5 motor domain. Amino acid side chains that are not conserved between Eg5 and conventional kinesin were targeted, either introducing chimeric or rationally designed mutations (asterix for targeted point mutants) to test the contribution of residues to the drug-sensitivity of Eg5. (B) Steady-state enzymatic parameters for engineered human Eg5 motor domain mutants. Steady-state ATP hydrolysis by Eg5 was measured using an NADH-enzyme coupled assay varying the concentration of ATP, microtubules, or monastrol to obtain the microtubule concentration for half-maximal stimulation (K0.5MT), the maximal rate of microtubule-stimulated ATP hydrolysis (kcat), and the concentration of monastrol that inhibits basal ATP hydrolysis by 50 % (IC50), as described.
We used a modified PCR mutagenesis protocol to introduce mutations into hEg5-367H, a plasmid encoding the C-terminally His6-tagged motor domain (amino acid residues 1–367) of human Eg5. […]
as §2

Eg5 = conditions: cited from earlier work
[1] = 500 nM hEg5-367H, KC25 buffer, 1 mM ATP-KOH (pH 7.0), 1 μM taxol-stabilized microtubules
[2] = 500 nM hEg5-367H, KC25 buffer, 1 mM ATP-KOH (pH 7.0), 1 μM taxol-stabilized microtubules, read-out: IC50 (μM), inhibition of ATP hydrolysis by Eg5 motor domain
[3] = BSC-1, BS-C-1 cells, 6 hours treatment, duplicate

Row | Compound | IC50 (μM), inhibition of ATP hydrolysis by Eg5 motor domain (hEg5-367H; [1]) | EC50 (BS-C-1 cells; BSC-1, 6 h) [µM] | IC50 (hEg5-367H) [µM] | also measured
1 | CCOC(=O)C1=C(C)NC(=S)NC1c1ccc(O)cc1 (centres unmarked) [Derivative 4b] | Not Inhib. | > 200 | – | –
2 | CCOC(=O)C1=C(C)NC(=S)N[C@H]1c1cccc(O)c1 [(S)-monastrol, reference compound] | – | – | 6.1 ± 0.7 | IC50 (Klp61F-364H): 230 ± 4 µM
3 | CC1=C(C(=O)OCc2ccccc2)C(c2cccc(O)c2)NC(=S)N1 (centres unmarked) [Derivative 5c, benzyl 6-methyl-4-(3-hydroxyphenyl)-2-thioxo-1,2,3,4-tetrahydropyrimidine-5-carboxylate] | – | 50 to 200 | 21 | –
4 | CCOC(=O)C1=C(C)NC(=S)NC1c1cccc(F)c1 (centres unmarked) [Derivative 4c, ethyl 6-methyl-4-(3-fluorophenyl)-2-thioxo-1,2,3,4-tetrahydropyrimidine-5-carboxylate] | Not Inhib. | > 200 | – | –
5 | CCOC(=O)C1=C(C)NC(=S)NC1c1ccccc1 (centres unmarked) [Derivative 4a, ethyl 6-methyl-4-phenyl-2-thioxo-1,2,3,4-tetrahydropyrimidine-5-carboxylate] | – | – | – | IC50 (hEg5-367H; [2]): > 200 µM; EC50 (BS-C-1 cells; [3]): > 200 µM
6 | CC(=O)C1=C(C)NC(=S)NC1c1cccc(O)c1 (centres unmarked) [Derivative 5a, methyl 6-methyl-4-(3-hydroxyphenyl)-2-thioxo-1,2,3,4-tetrahydropyrimidine-5-ketone] | – | 50 to 200 | 25 | –
7 | CCOC(=O)C1=C(C)NC(=O)NC1c1cccc(O)c1 (centres unmarked) [Derivative 2, ethyl 6-methyl-4-(3-hydroxyphenyl)-2-oxo-1,2,3,4-tetrahydropyrimidine-5-carboxylate] | Not Inhib. | – | – | Drug sensitivity of L214T mutant, in words (hEg5-367H (L214T)): resistant; Activity as Eg5 inhibitor, in words (hEg5-367H): completely inactive; EC50 (BS-C-1 cells; [3]): > 200 µM
8 | N[C@@H](CSC(c1ccccc1)(c1ccccc1)c1ccccc1)C(=O)O [S-trityl cysteine] | – | – | – | Potency relative to monastrol (Eg5): more potent than monastrol
9 | CCOC(=O)C1=C(C)NC(=S)NC1c1cccc(OC)c1 (centres unmarked) [Derivative 4d, ethyl 6-methyl-4-(3-methoxyphenyl)-2-thioxo-1,2,3,4-tetrahydropyrimidine-5-carboxylate] | Not Inhib. | > 200 | – | –
10 | CCOC(=O)C1=C(C)NC(=S)NC1c1cccc(Br)c1 (centres unmarked) [Derivative 4e, ethyl 6-methyl-4-(3-bromophenyl)-2-thioxo-1,2,3,4-tetrahydropyrimidine-5-carboxylate] | – | – | – | Activity as Eg5 inhibitor, in words (hEg5-367H): completely inactive
11 | CCOC(=O)C1=C(C(C)C)NC(=S)NC1c1cccc(O)c1 (centres unmarked) [Derivative 6, ethyl 6-isopropyl-4-(3-hydroxyphenyl)-2-thioxo-1,2,3,4-tetrahydropyrimidine-5-carboxylate] | Not Inhib. | > 200 | – | –
12 | CCOC(=O)C1=C(C)N(C)C(=S)NC1c1cccc(O)c1 (centres unmarked) [Derivative 1, ethyl 6-methyl-4-(3-hydroxyphenyl)-2-thioxo-1-methyl-1,2,3,4-tetrahydropyrimidine-5-carboxylate] | – | < 50 | 3.3 | –
13 | CC1=C(C(=O)OCC(C)C)C(c2cccc(O)c2)NC(=S)N1 (centres unmarked) [Derivative 5b, isobutyl 6-methyl-4-(3-hydroxyphenyl)-2-thioxo-1,2,3,4-tetrahydropyrimidine-5-carboxylate] | – | – | – | IC50 (hEg5-367H; [2]): 3.8 µM; EC50 (BS-C-1 cells; [3]): < 50 µM
